In ChEMBL document CHEMBL3763078, “Cytotoxicity and apoptotic activity of novel organobismuth(V) and organoantimony(V) complexes in different cancer cell lines” (Eur J Med Chem, 2016):

Columns and labels:
B16-F10 [1] = test: Induction of apoptosis in mouse B16F10 cells assessed as dead cells at 0.1 uM after 48 hrs by annexin V-FITC/propidium iodide staining-based flow cytometric analysis (reference value: 1.11%); type: functional
B16-F10 [2] = test: Induction of apoptosis in mouse B16F10 cells assessed as late apoptotic cells at 0.1 uM after 48 hrs by annexin V-FITC/propidium iodide staining-based flow cytometric analysis (reference value: 0.450%); type: functional
B16-F10 [3] = test: Induction of apoptosis in mouse B16F10 cells assessed as viable cells at 0.1 uM after 48 hrs by annexin V-FITC/propidium iodide staining-based flow cytometric analysis (reference value: 98.4%); type: functional; conditions: B16-F10, 48 h, read-out: Activity
B16-F10 [4] = test: Induction of apoptosis in mouse B16F10 cells assessed as early apoptotic cells at 0.1 uM after 48 hrs by annexin V-FITC/propidium iodide staining-based flow cytometric analysis (reference value: 0.087%); type: functional
B16-F10 [5] = test: Induction of apoptosis in mouse B16F10 cells at 0.1 uM after 48 hrs by annexin V-FITC/propidium iodide staining-based flow cytometric analysis relative to control; type: functional
HL-60 [6] = test: Induction of apoptosis in human HL60 cells assessed as increase in sub-diploid DNA content at 0.44 uM after 6 hrs by propidium iodide staining-based flow cytometric analysis relative to control; type: functional, cell-based
HL-60 [7] = test: Induction of apoptosis in human HL60 cells assessed as increase in sub-diploid DNA content at 0.44 uM after 12 hrs by propidium iodide staining-based flow cytometric analysis relative to control; type: functional, cell-based
B16-F10 [8] = test: Selectivity index, ratio of IC50 for mouse L929 cells to IC50 for mouse B16F10 cells; type: functional
B16-F10 [9] = test: Selectivity index, ratio of IC50 for mouse Melan-a cells to IC50 for mouse B16F10 cells; type: functional
K562 [10] = test: Selectivity index, ratio of IC50 for mouse L929 cells to IC50 for human K562 cells; type: functional
K562 [11] = test: Selectivity index, ratio of IC50 for mouse Melan-a cells to IC50 for human K562 cells; type: functional
[12] = Induction of apoptosis in mouse thymocytes at 30 uM after 3 hrs by annexin V-FITC/ethidium bromide staining-based flow cytometric analysis relative to control; type: cell-based; conditions: thymocyte
L929 = test: Cytotoxicity against mouse L929 cells assessed as cell viability after 72 hrs by MTT assay; type: cell-based
[13] = Cytotoxicity against mouse Melan-a cells assessed as cell viability after 72 hrs by MTT assay; type: cell-based
[14] = Cytotoxicity against mouse B16F10 cells assessed as cell viability after 72 hrs by MTT assay; type: functional, cell-based, B16-F10
K562 [15] = test: Cytotoxicity against human K562 cells assessed as cell viability after 72 hrs by tryphan blue assay; type: functional, cell-based
B16-F10 [16] = test: Induction of apoptosis in mouse B16F10 cells assessed as increase in sub-diploid DNA content at 10 uM after 24 hrs by propidium iodide staining-based flow cytometric analysis relative to control; type: functional, cell-based
B16-F10 [17] = test: Induction of apoptosis in mouse B16F10 cells assessed as increase in sub-diploid DNA content at 100 uM after 24 hrs by propidium iodide staining-based flow cytometric analysis relative to control; type: functional, cell-based
B16-F10 [18] = test: Induction of apoptosis in mouse B16F10 cells assessed as increase in sub-diploid DNA content at 10 uM after 48 hrs by propidium iodide staining-based flow cytometric analysis relative to control; type: functional, cell-based
B16-F10 [19] = test: Induction of apoptosis in mouse B16F10 cells assessed as increase in sub-diploid DNA content at 100 uM after 48 hrs by propidium iodide staining-based flow cytometric analysis relative to control; type: functional, cell-based
B16-F10 [20] = test: Induction of apoptosis in mouse B16F10 cells assessed as dead cells at 1 uM after 48 hrs by annexin V-FITC/propidium iodide staining-based flow cytometric analysis (reference value: 1.11%); type: functional, cell-based
B16-F10 [21] = test: Induction of apoptosis in mouse B16F10 cells assessed as late apoptotic cells at 1 uM after 48 hrs by annexin V-FITC/propidium iodide staining-based flow cytometric analysis (reference value: 0.450%); type: functional, cell-based
B16-F10 [22] = test: Induction of apoptosis in mouse B16F10 cells assessed as viable cells at 1 uM after 48 hrs by annexin V-FITC/propidium iodide staining-based flow cytometric analysis (reference value: 98.4%); type: functional, cell-based
B16-F10 [23] = test: Induction of apoptosis in mouse B16F10 cells assessed as early apoptotic cells at 1 uM after 48 hrs by annexin V-FITC/propidium iodide staining-based flow cytometric analysis (reference value: 0.087%); type: functional, cell-based
B16-F10 [24] = test: Induction of apoptosis in mouse B16F10 cells assessed as dead cells at 10 uM after 48 hrs by annexin V-FITC/propidium iodide staining-based flow cytometric analysis (reference value: 1.11%); type: functional, cell-based
B16-F10 [25] = test: Induction of apoptosis in mouse B16F10 cells assessed as late apoptotic cells at 10 uM after 48 hrs by annexin V-FITC/propidium iodide staining-based flow cytometric analysis (reference value: 0.450%); type: functional, cell-based
B16-F10 [26] = test: Induction of apoptosis in mouse B16F10 cells assessed as viable cells at 10 uM after 48 hrs by annexin V-FITC/propidium iodide staining-based flow cytometric analysis (reference value: 98.4%); type: functional, cell-based
B16-F10 [27] = test: Induction of apoptosis in mouse B16F10 cells assessed as early apoptotic cells at 10 uM after 48 hrs by annexin V-FITC/propidium iodide staining-based flow cytometric analysis (reference value: 0.087%); type: functional, cell-based
B16-F10 [28] = test: Induction of apoptosis in mouse B16F10 cells assessed as dead cells at 100 uM after 48 hrs by annexin V-FITC/propidium iodide staining-based flow cytometric analysis (reference value: 1.11%); type: functional, cell-based
B16-F10 [29] = test: Induction of apoptosis in mouse B16F10 cells assessed as late apoptotic cells at 100 uM after 48 hrs by annexin V-FITC/propidium iodide staining-based flow cytometric analysis (reference value: 0.450%); type: functional, cell-based
B16-F10 [30] = test: Induction of apoptosis in mouse B16F10 cells assessed as viable cells at 100 uM after 48 hrs by annexin V-FITC/propidium iodide staining-based flow cytometric analysis (reference value: 98.4%); type: functional, cell-based
B16-F10 [31] = test: Induction of apoptosis in mouse B16F10 cells assessed as early apoptotic cells at 100 uM after 48 hrs by annexin V-FITC/propidium iodide staining-based flow cytometric analysis (reference value: 0.087%); type: functional, cell-based
B16-F10 [32] = test: Induction of apoptosis in mouse B16F10 cells at 1 uM after 48 hrs by annexin V-FITC/propidium iodide staining-based flow cytometric analysis relative to control; type: functional, cell-based
B16-F10 [33] = test: Induction of apoptosis in mouse B16F10 cells at 10 uM after 48 hrs by annexin V-FITC/propidium iodide staining-based flow cytometric analysis relative to control; type: functional, cell-based
B16-F10 [34] = test: Induction of apoptosis in mouse B16F10 cells at 100 uM after 48 hrs by annexin V-FITC/propidium iodide staining-based flow cytometric analysis relative to control; type: functional, cell-based
B16-F10 [35] = test: Induction of apoptosis in mouse B16F10 cells at 1 to 100 uM after 48 hrs by annexin V-FITC/propidium iodide staining-based flow cytometric analysis relative to staurosporine; type: functional, cell-based
B16-F10 [36] = test: Induction of apoptosis in mouse B16F10 cells assessed as increase in sub-diploid DNA content at 10 uM after 24 hrs by propidium iodide staining-based flow cytometric analysis relative to staurosporin; type: functional, cell-based
B16-F10 [37] = test: Induction of apoptosis in mouse B16F10 cells assessed as increase in sub-diploid DNA content at 100 uM after 24 hrs by propidium iodide staining-based flow cytometric analysis relative to staurosporin; type: functional, cell-based

## CN[C@@H]1C[C@H]2O[C@@](C)([C@@H]1OC)n1c3ccccc3c3c4c(c5c6ccccc6n2c5c31)C(=O)NC4 [STAUROSPORINE]
B16-F10 [1]
  Activity: 22.2%
B16-F10 [2]
  Activity: 43.5%
B16-F10 [3]
  viability at 0.1 µM: 33.9%
B16-F10 [4]
  Activity: 0.461%
B16-F10 [5]
  fold change (FC): 21

## Bi-chlorodibenzo[c,f][1,5]thiabismocine
HL-60 [6]
  fold change (FC): 13
HL-60 [7]
  Activity: 80%

## Bis-(4-acetylbenzoato)triphenylbismuth(V)
B16-F10 [8]
  Ratio IC50: 1.8
B16-F10 [9]
  Ratio IC50: 12.7
K562 [10]
  Ratio IC50: 1
K562 [11]
  Ratio IC50: 7.4

## [sequence]
B16-F10 [8]
  Ratio IC50: 8
B16-F10 [9]
  Ratio IC50: 6.7
K562 [10]
  Ratio IC50: 5
K562 [11]
  Ratio IC50: 4.1

## TRIPHENYLBISMUTHINE
[12]
  fold change (FC): 5

## CC(=O)c1ccccc1C(=O)O
L929; Mus musculus, L929, 72 h
  IC50: 474 µM
[13]; Mus musculus, Melan-a, 72 h
  IC50: 775 µM
[14]; Mus musculus, B16-F10, 72 h
  IC50: 852 µM
B16-F10 [8]
  Ratio IC50: <1
B16-F10 [9]
  Ratio IC50: <1
K562 [15]; Homo sapiens, K562, 72 h
  IC50: 502 µM
K562 [10]
  Ratio IC50: <1
K562 [11]
  Ratio IC50: 1.5

## Bis-(2-acetylbenzoato)triphenylbismuth(V)
B16-F10 [8]
  Ratio IC50: 6.1
B16-F10 [9]
  Ratio IC50: 13
K562 [10]
  Ratio IC50: 24.6
K562 [11]
  Ratio IC50: 52.4
B16-F10 [16]
  fold change (FC): 18
B16-F10 [17]
  fold change (FC): 70
B16-F10 [18]
  fold change (FC): 129
B16-F10 [19]
  fold change (FC): 256
B16-F10 [20]
  Activity: 3.89%
B16-F10 [21]
  Activity: 14.6%
B16-F10 [22]
  Activity: 66.1%
B16-F10 [23]
  Activity: 15.4%
B16-F10 [24]
  Activity: 10.7%
B16-F10 [25]
  Activity: 77.3%
B16-F10 [26]
  Activity: 5.22%
B16-F10 [27]
  Activity: 6.81%
B16-F10 [28]
  Activity: 7.1%
B16-F10 [29]
  Activity: 90.1%
B16-F10 [30]
  Activity: 1.57%
B16-F10 [31]
  Activity: 1.25%
B16-F10 [32]
  fold change (FC): 8
B16-F10 [33]
  fold change (FC): 33
B16-F10 [34]
  fold change (FC): 34
B16-F10 [35]
  fold change (FC): 1.5
B16-F10 [36]
  fold change (FC): 18
B16-F10 [37]
  fold change (FC): 70

## CC(=O)c1ccc(C(=O)O)cc1
L929; Mus musculus, L929, 72 h
  IC50: 331 µM
[14]; Mus musculus, B16-F10, 72 h
  IC50: 176 µM
B16-F10 [8]
  Ratio IC50: 1.8
B16-F10 [9]
  Ratio IC50: <1
K562 [15]; Homo sapiens, K562, 72 h
  IC50: < 1000 µM
K562 [10]
  Ratio IC50: <1
K562 [11]
  Ratio IC50: <1

## Bis-(5-acetylsalicylato)triphenylantimony(V) chloroform solvate
B16-F10 [8]
  Ratio IC50: 2.2
B16-F10 [9]
  Ratio IC50: 1.6
K562 [10]
  Ratio IC50: 7.9
K562 [11]
  Ratio IC50: 5.6

## CC(=O)c1ccc(O)c(C(=O)O)c1
L929; Mus musculus, L929, 72 h
  IC50: 306 µM
[14]; Mus musculus, B16-F10, 72 h
  IC50: 4880 µM
B16-F10 [8]
  Ratio IC50: <1
B16-F10 [9]
  Ratio IC50: <1
K562 [10]
  Ratio IC50: <1
K562 [11]
  Ratio IC50: <1

## bis-(4-acetylbenzoato)triphenylantimony(V)
B16-F10 [8]
  Ratio IC50: 3.1
B16-F10 [9]
  Ratio IC50: 6.6
K562 [10]
  Ratio IC50: 3.4
K562 [11]
  Ratio IC50: 7.2

## triphenylantimony(V) dichloride
B16-F10 [8]
  Ratio IC50: 1.9
B16-F10 [9]
  Ratio IC50: 6.7
K562 [10]
  Ratio IC50: 2.6
K562 [11]
  Ratio IC50: 2.6

## DICHLOROTRIPHENYLBISMUTHANE
L929; l929
  IC50: 154 µM
[13]; melan-a
  IC50: 130 µM
[14]; b16-f10
  IC50: 19.2 µM
K562 [15]; k562
  IC50: 31.1 µM
